The target in this test is T1, glutathione peroxidase 4 (hGPX4-C) (Homo sapiens, UniProt P36969, U73C).
T1 construct: gene GPX4; human cytosolic GPX4 (c-GPX4), his-tagged, expressed in E. coli M15
Kind of test: activation of purified GPX4 in a glutathione reductase/NADPH coupled assay; Tm shift about […]°C; D23A mutant loses activation; CETSA in HEK293T cells. The test is classed as biochemical. The conditions noted are these: read-out: % (maximum activation).

The source of these data is paper PMC6178849, “Activation of Glutathione Peroxidase 4 as a Novel Anti-inflammatory Strategy” (Frontiers in Pharmacology, 2018).

The structures appear in SMILES notation.

T1 sequence (P36969 other isoform, or with tags, fused parts or gaps U73C): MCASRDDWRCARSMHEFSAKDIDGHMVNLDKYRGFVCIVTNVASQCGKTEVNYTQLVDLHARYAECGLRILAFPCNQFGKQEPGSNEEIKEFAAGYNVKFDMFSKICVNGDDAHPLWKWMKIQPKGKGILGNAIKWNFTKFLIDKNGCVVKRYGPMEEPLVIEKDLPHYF

For the compound `NC1=NC2(O)C(=O)c3ccccc3C2(O)N1` (stereo not shown) [compound 102, PKUMDL-LC-102], the Emax came out at 236%.
